What was measured:
[1] = tested on: N. tabacum callus culture; experiment: Tobacco callus growth on MS media with 2,4-D, CNC or CNC-2,4-D conjugate; type: cell-based, Nicotiana tabacum; conditions: reduced amount of 2,4-D (0.4 mg/L or equivalent), 35 days in the dark, total fresh weight
Experimental: To understand if CNC can deliver a plant hormone that encourages cell division to plants, CNCs conjugated with 2,4-D were added to MS medium. 2,4-D was selected for conjugation based on the extensive use of this synthetic auxin as both a plant growth regulator commonly employed in tissue cultures and as an active ingredient in commercial herbicides. At a modest dose of 1 mg/L, 2,4-D can act as a positive growth regulator and is commonly used in plant cell cultures. […] To estimate if the conjugation of CNC and 2,4-D can improve the uptake of 2,4-D, the total biomass of callus tissues cultivated on media containing 2,4-D was measured. N. tabacum calli were seeded on media containing either a standard dose of 2,4-D (1 mg/L) or a reduced dose of 2,4-D (0.4 mg/L) both conjugated and non-conjugated with CNC. […]
N. tabacum callus culture that was established by Khodakovskaya et al. was used in experiments. […] Callus growth was on the following mediums was assessed: MS medium (no 2,4-D supplement); MS medium supplemented with reduced dose of 2,4-D (0.4 mg/L); MS medium supplemented only with CNC (0.4 mg/L); MS medium supplemented with non-conjugated CNC (0.4 mg/L) and 2,4-D (0.4 mg/L); and MS medium supplemented with CNC-2,4-D conjugate (with 0.4 mg/L 2,4D). Total produced cell biomass was evaluated by measurement of total fresh weight of callus culture generated in the end of cultivation period.

[2] = tested on: Arabidopsis thaliana leaves; experiment: Confocal microscopy uptake of CNC-DTAF by Arabidopsis leaves; type: cell-based; conditions: free CNC or DTAF in doses comparable with amounts in the CNC-DTAF conjugate (negative controls), 4 hours
Experimental: To evaluate entry of synthesized CNC-dye conjugates into leaves, 12-day-old Arabidopsis thaliana seedlings were soaked with CNC-DTAF conjugate solution for 4 hours. Additionally, both protoplasts and callus cells of Nicotiana tabacum were incubated with CNC-FITC conjugate for 4 hours, as shown in FIG. 4A. All samples were imaged with confocal microscopy. The fluorescence of CNC-DTAF and CNC-FITC stained samples was digitally measured to determine the difference in signal intensity between conjugate-treated and untreated plant samples.
FIGS. 4B-F show fluorescence intensity images and measured fluorescence intensity (f) of Arabidopsis leaves incubated with water (FIG. 4B), CNC (FIG. 4C), DTAF (FIG. 4D) and CNC-DTAF conjugates (FIG. 4E), for 4 hours.
This observation indicated the ability of CNC to penetrate the cell wall and deliver dye inside the cell.
Leaves of 12-day-old A. thaliana seedlings were soaked in water (control), DTAF solution, CNC solution, or DTAF-CNC solution (1 mg/mL) for 4 hours and then intensively washed with ddH2O to fully remove residual treatments. Both freshly isolated N. tabacum protoplasts and callus cells that were cultivated for 20 days on standard Murashige and Skoog medium (MS medium) were immersed into 1 mg/mL of FITC-CNC conjugate or solution CNC and allowed to incubate for 4 hours. […]

Row | Structure (SMILES) | cell growth compared to medium with regular dose of 2,4-D (1 mg/L) [1] | fluorescence observed in leaves [2]
1 | O=C(O)COc1ccc(Cl)cc1Cl [2,4-D, 2,4-dichlorophenoxyacetic acid] | suppressed cell growth | –
2 | Cl.O=C1OC2(c3ccc(O)cc3Oc3cc(O)ccc32)c2ccc(Nc3nc(Cl)nc(Cl)n3)cc21 [DTAF, 5-[(4,6-Dichlorotriazin-2-yl)amino]fluorescein hydrochloride] | – | only slight autofluorescence

— patent publication US20230407321A1, “METHOD TO DELIVER CHEMICALS AND NUCLEIC ACIDS TO PLANT CELLS USING CELLULOSE NANOCRYSTALS AS A CARRIER” (BOARD OF TRUSTEES OF THE UNIVERSITY OF ARKANSAS, priority 2022, published 2023)
